Experimental data as given in ChEMBL document CHEMBL6078674, “Genome Mining of the Marine-Derived Fungus Trichoderma erinaceum F1-1 Unearths Bergamotene-Type Sesquiterpenoids” (J Nat Prod, 2024).
pIC50: −log10 of the molar value.

Columns and labels:
A549 = experiment: Cytotoxicity against human A549 cells; format: functional, cell-based
Staphylococcus aureus = experiment: Antibacterial activity against methicillin-resistant Staphylococcus aureus; format: functional, organism-based
RKO = experiment: Cytotoxicity against human RKO cells; format: functional, cell-based
RAW264.7 = experiment: Antiinflammatory activity in mouse RAW264.7 cells; format: functional, cell-based

Measured: pIC50

CC(C)=CCC[C@]1(C)[C@@H]2C[C@H]1C(C)=C[C@H]2O[C@H]1O[C@H](CO)[C@@H](O)[C@H](O)[C@H]1O
< 4.30: all assays above

C/C(=C\CC[C@]1(C)[C@H]2CC(=O)[C@@H](C)[C@@H]1C2)CO
< 4.30: all assays above

C/C(=C\CC[C@]1(C)[C@H]2CC(=O)[C@](C)(O)[C@@H]1C2)CO
< 4.30: all assays above

CC(=O)[C@@H]1C[C@H](CC(=O)O)[C@@]1(C)CCC=C(C)C
< 4.30: all assays above

CC(C)=CCC[C@]1(C)[C@@H]2C[C@H]1[C@@](C)(O)C(=O)[C@H]2O
< 4.30: all assays above

CC(C)=CCC[C@]1(C)[C@@H]2C[C@H]1[C@@](C)(O)C(=O)C2=O
< 4.30: all assays above

CC(C)=CCC[C@]1(C)[C@H]2CC(=O)[C@](C)(O[C@H]3O[C@H](CO)[C@@H](O)[C@H](O)[C@H]3O)[C@@H]1C2
< 4.30: all assays above

C/C(=C\CC[C@]1(C)[C@H]2CC(=O)[C@](C)(O)[C@@H]1C2)C(=O)O
< 4.30: all assays above
